Test results as given in patent publication US11833229B2, “Labeling precursors with squaric acid coupling” (SCV—SpezialChemikalienVertrieb GmbH, priority 2019, dated 2023).
Where “and” joins values, the source holds several entries; their conditions need not be identical. Equal values may be shown once. Read-outs that look alike come from different tables or passages of the source. Each block holds one compound with its values, some of them ahead of it.

What was measured:
[1] = PET scans of bone tracers in young healthy rats; assay type: in vivo, Wistar rats
Description: The tracer NOTA.QS.PAM according to the invention and the clinically established reference tracer DOTA^Zol were labeled with ^68Ga, injected into young healthy Wistar rats, followed by recording of PET scans at intervals of 5 min, 60 min and 120 min after injection.
Both tracers are characterized by renal excretion and low retention in the remaining tissue.

LNCap cells = assay: In vitro IC50 of unlabeled compounds with LNCap cells; assay type: cell-based
Text: Further compounds according to the invention are those of the DATA.QS.PSMA type, the structure of which corresponds to the other compounds listed, with the DATA chelator enabling simpler and milder labeling. In the synthesis shown in FIG. 37, a yield of about 70% is achieved. In the case of radioactive labeling with ^68Ga, a yield of more than 95% is achieved (FIG. 38).

FAP = biological target: T1, FAP (Homo sapiens, UniProt Q12884); assay: FAP IC50 using Z-Gly-Pro-7-amino-4-methylcoumarin (AMC); assay type: biochemical; conditions: for Selectivity index (FAP/PREP): from IC50 FAP and IC50 PREP; for IC50: substrate Z-Gly-Pro-AMC
T1 sequence (Q12884 1-760): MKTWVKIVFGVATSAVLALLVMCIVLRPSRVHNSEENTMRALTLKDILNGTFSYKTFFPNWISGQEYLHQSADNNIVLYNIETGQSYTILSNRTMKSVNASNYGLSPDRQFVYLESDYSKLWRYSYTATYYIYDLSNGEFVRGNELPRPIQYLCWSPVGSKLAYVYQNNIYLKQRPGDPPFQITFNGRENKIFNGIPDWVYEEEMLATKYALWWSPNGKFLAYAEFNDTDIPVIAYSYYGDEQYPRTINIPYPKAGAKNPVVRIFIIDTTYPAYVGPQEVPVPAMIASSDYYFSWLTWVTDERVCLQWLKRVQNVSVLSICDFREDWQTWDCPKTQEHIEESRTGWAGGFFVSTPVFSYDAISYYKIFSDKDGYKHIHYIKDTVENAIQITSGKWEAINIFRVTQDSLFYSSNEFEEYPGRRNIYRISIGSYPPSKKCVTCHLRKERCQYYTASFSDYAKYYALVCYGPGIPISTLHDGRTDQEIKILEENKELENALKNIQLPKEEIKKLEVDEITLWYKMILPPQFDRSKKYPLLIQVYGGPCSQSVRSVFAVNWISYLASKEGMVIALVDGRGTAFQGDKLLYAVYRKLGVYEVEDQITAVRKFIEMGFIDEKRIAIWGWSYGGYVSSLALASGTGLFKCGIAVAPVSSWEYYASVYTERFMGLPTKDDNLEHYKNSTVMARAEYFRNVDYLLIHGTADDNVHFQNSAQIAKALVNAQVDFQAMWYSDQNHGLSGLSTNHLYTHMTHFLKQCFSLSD
Description: (§1) The FAP IC50 values were measured using Z-Gly-Pro-7-amino-4-methylcoumarin (AMC). The PREP IC50 values were determined using N-succinyl-Gly-Pro-AMC.

PREP = biological target: T2, PREP (Homo sapiens, UniProt P48147); assay: PREP IC50 using N-succinyl-Gly-Pro-AMC; assay type: biochemical; conditions: substrate N-succinyl-Gly-Pro-AMC
T2 sequence (P48147 1-710): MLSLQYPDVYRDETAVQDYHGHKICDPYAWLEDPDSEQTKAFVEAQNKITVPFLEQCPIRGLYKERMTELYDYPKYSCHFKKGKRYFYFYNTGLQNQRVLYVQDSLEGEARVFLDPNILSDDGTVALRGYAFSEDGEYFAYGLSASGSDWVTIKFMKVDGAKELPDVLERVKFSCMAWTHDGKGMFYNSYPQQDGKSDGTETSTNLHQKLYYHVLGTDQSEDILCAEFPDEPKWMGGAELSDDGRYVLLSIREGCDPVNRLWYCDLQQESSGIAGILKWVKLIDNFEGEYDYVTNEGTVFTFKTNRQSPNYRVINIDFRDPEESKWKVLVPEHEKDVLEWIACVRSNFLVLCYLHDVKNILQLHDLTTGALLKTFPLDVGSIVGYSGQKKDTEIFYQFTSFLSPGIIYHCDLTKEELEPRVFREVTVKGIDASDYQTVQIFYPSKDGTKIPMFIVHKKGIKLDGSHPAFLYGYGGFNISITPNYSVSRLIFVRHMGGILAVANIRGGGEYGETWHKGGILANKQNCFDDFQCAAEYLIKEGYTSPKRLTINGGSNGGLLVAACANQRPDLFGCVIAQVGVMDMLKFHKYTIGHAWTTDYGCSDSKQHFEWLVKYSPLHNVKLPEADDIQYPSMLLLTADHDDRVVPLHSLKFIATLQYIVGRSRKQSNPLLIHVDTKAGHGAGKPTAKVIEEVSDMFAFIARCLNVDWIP
Description: as §1

tumor tissue = assay: In vivo and ex vivo investigation of TRAP.QS.PSMA radiotracer; conditions: ex vivo, compared to [68Ga]Ga-PSMA-11
Description: FIG. 31a-b, 32-36 show the synthesis and measurement results for radiolabeling, stability and in vivo investigations of the radiotracer [^68Ga]Ga-TRAP.QS.PSMA. […] The in vivo studies were carried out with ^68Ga and ^64Cu. From the images it can be seen that, compared to Examples 8 and 10, the accumulation in the kidneys is […] for both radiotracers.

tumor [2] = assay: In vivo PET comparison of DATA.QS.PSMA with PSMA-11 (MIP, time/activity curves)
Text: Furthermore, compounds of the type DATA.QS.PSMA were compared in vivo with PSMA-11 in the same animal model.

tumor [3] = assay: Ex vivo activities of 68Ga-DATA.QS.PSMA and 68Ga-PSMA-11; assay type: in vivo; conditions: ± SD
Text: The results of ex vivo investigations (FIGS. 41-43) are in agreement with the in vivo observations.

LNCaP tumor [4] = assay: PET preclinical comparative tests of PSMA radiotracers (SUV); conditions: 68Ga-labeled tracer; for SUV Nieren: kidneys (Nieren); for SUV Leber: liver (Leber)
LNCaP tumor [5] = conditions: NMRI nu/nu nude, mouse, in vivo
LNCaP tumor [6] = assay: Biological distribution by extraction of organs (ex vivo), PSMA tracers; assay type: in vivo, NMRInu/nu nude mice; conditions: for tumor activity (biological distribution): compared with 68Ga-PSMA-11 and 68Ga-PSMA-617
Text: In addition, PET was used to carry out preclinical ex vivo tests with the radiotracers of type [^68Ga]Ga-DOTA.QS.PSMA, [^68Ga]Ga-PSMA-11 and [^68Ga] Ga-PSMA-617 on NMRInu/nu nude mice with an LNCap tumor. […] The results obtained underline those obtained in the in vivo tests.

SUV femur ([1]; 68Ga-labeled, organ distribution, femur): 3.7±0.4
Structure (SMILES): O=C(O)CN1CCN(CC(=O)O)CCN(CC(=O)NCCc2cncn2CC(O)(P(=O)(O)O)P(=O)(O)O)CCN(CC(=O)O)CC1.[68Ga+3] [^68Ga-DOTA^Zol, reference compound]

IC50 (LNCap cells): 51.5 nM and 51.1 nM
Structure (SMILES): CN(CC(=O)O)C1(CCCCC(=O)NCCNc2c(NCCCCC(NC(=O)NC(CCC(=O)O)C(=O)O)C(=O)O)c(=O)c2=O)CN(CC(=O)O)CCN(CC(=O)O)C1 (stereo not drawn) [DATA.QS.PSMA]

Selectivity index (FAP/PREP) (FAP): 2113 | IC50 (FAP): 0.8 ± 0.2 nM | IC50 (PREP): 1690 ± 90 nM
Structure (SMILES): CN(CC(=O)O)C1(CCCCC(=O)NCCNc2c(NCCCCOc3ccc4nccc(C(=O)NCC(=O)N5CC(F)(F)C[C@H]5C#N)c4c3)c(=O)c2=O)CN(CC(=O)O)CCN(CC(=O)O)C1 [DATA^5m.QS.FAPi - uncomplexed]

Selectivity index (FAP/PREP) (FAP): 6714 | IC50 (FAP): 0.7 ± 0.1 nM | IC50 (PREP): 4700 ± 300 nM
Structure (SMILES): CN(CC(=O)O)C1(CCCCC(=O)NCCNc2c(NCCCCOc3ccc4nccc(C(=O)NCC(=O)N5CC(F)(F)C[C@H]5C#N)c4c3)c(=O)c2=O)CN(CC(=O)O)CCN(CC(=O)O)C1.[Ga+3] [DATA5m.QS.FAPi - natGa]

accumulation in the kidneys (tumor tissue): noticeably decreased | accumulation in tumor tissue (tumor tissue): elevated
Structure (SMILES): O=C(O)CCC(NC(=O)NC(CCCCNc1c(NCCCOCCOCCOCCCNC(=O)CCP(=O)(O)CN2CCN(CP(=O)(O)CCC(=O)NCCCOCCOCCOCCCNc3c(NCCCCC(NC(=O)NC(CCC(=O)O)C(=O)O)C(=O)O)c(=O)c3=O)CCN(CP(=O)(O)CCC(=O)NCCCOCCOCCOCCCNc3c(NCCCCC(NC(=O)NC(CCC(=O)O)C(=O)O)C(=O)O)c(=O)c3=O)CC2)c(=O)c1=O)C(=O)O)C(=O)O.[68Ga+3] (stereo not drawn) [[^68Ga]Ga-TRAP.QS.PSMA]

accumulation in the tumor (tumor [2]; MIP images): high accumulation | excretion via the kidneys (tumor [2]; first hour, compared with [68Ga]-PSMA-11, time/activity curves): significantly faster | Ex vivo activity LN (tumor [3]): 0.35 ± 0.20 % ID/g | Ex vivo activity blood (tumor [3]): 0.50 ± 0.19 % ID/g | Ex vivo activity bone (tumor [3]): 0.15 ± 0.03 % ID/g | Ex vivo activity heart (tumor [3]): 0.17 ± 0.06 % ID/g | Ex vivo activity kidney left (tumor [3]): 6.59 ± 2.45 % ID/g | Ex vivo activity kidney right (tumor [3]): 6.23 ± 2.39 % ID/g | Ex vivo activity liver (tumor [3]): 0.21 ± 0.04 % ID/g | Ex vivo activity lung (tumor [3]): 0.59 ± 0.27 % ID/g | Ex vivo activity muscle (tumor [3]): 0.09 ± 0.05 % ID/g | Ex vivo activity salivary glands (tumor [3]): 0.19 ± 0.07 % ID/g | Ex vivo activity small intestine (tumor [3]): 0.31 ± 0.12 % ID/g | Ex vivo activity spleen (tumor [3]): 0.54 ± 0.22 % ID/g | Ex vivo activity tumor (tumor [3]): 4.65 ± 0.58 % ID/g
Structure (SMILES): CN(CC(=O)O)C1(CCCCC(=O)NCCNc2c(NCCCCC(NC(=O)NC(CCC(=O)O)C(=O)O)C(=O)O)c(=O)c2=O)CN(CC(=O)O)CCN(CC(=O)O)C1.[68Ga+3] (stereo not drawn) [^68Ga.DATA.QS.PSMA]

Ex vivo activity LN (tumor [3]): 0.66 ± 0.10 % ID/g | Ex vivo activity blood (tumor [3]): 0.27 ± 0.03 % ID/g | Ex vivo activity bone (tumor [3]): 0.15 ± 0.04 % ID/g | Ex vivo activity heart (tumor [3]): 0.17 ± 0.03 % ID/g | Ex vivo activity kidney left (tumor [3]): 36.66 ± 5.05 % ID/g | Ex vivo activity kidney right (tumor [3]): 36.72 ± 4.33 % ID/g | Ex vivo activity liver (tumor [3]): 0.23 ± 0.04 % ID/g | Ex vivo activity lung (tumor [3]): 0.74 ± 0.04 % ID/g | Ex vivo activity muscle (tumor [3]): 0.11 ± 0.03 % ID/g | Ex vivo activity salivary glands (tumor [3]): 0.54 ± 0.11 % ID/g | Ex vivo activity small intestine (tumor [3]): 0.50 ± 0.14 % ID/g | Ex vivo activity spleen (tumor [3]): 3.12 ± 0.39 % ID/g | Ex vivo activity tumor (tumor [3]): 5.51 ± 0.38 % ID/g
Structure (SMILES): O=C([O-])CN(CCN(CC(=O)[O-])Cc1cc(CCC(=O)NCCCCCC(=O)NCCCC[C@H](NC(=O)N[C@@H](CCC(=O)O)C(=O)O)C(=O)O)ccc1[O-])Cc1cc(CCC(=O)O)ccc1[O-].[68Ga+3].[OH3+] [^68Ga.PSMA 11, reference compound]

SUV femur ([1]; rat, in vivo): 4.5±0.2 | renal excretion ([1]; rat, in vivo): slightly reduced
Structure (SMILES): O=C(O)CN1CCN(CC(=O)O)CCN(C(CCC(=O)NCCNc2c(NCCC(O)(P(=O)(O)O)P(=O)(O)O)c(=O)c2=O)C(=O)O)CC1.[68Ga+3] (stereo not drawn) [^68Ga-NOTA.QS.PAM]

SUV Nieren (LNCaP tumor [4]): 0.43 | SUV Leber (LNCaP tumor [4]): 0.27 | SUV Tumor (LNCaP tumor [4]): 0.73
Structure (SMILES): O=C(O)CCC(NC(=O)NC(CCCCNc1c(NCCNC(=O)CCC(C(=O)O)N2CCN(CC(=O)O)CCN(CC(=O)O)CCN(CC(=O)O)CC2)c(=O)c1=O)C(=O)O)C(=O)O (stereo not drawn) [DOTA.QS.PSMA]

Selectivity index (FAP/PREP) (FAP): 6000 | IC50 (FAP): 0.9 ± 0.1 nM | IC50 (PREP): 5400 ± 300 nM
Structure (SMILES): N#C[C@@H]1CC(F)(F)CN1C(=O)CNC(=O)c1ccnc2ccc(OCCCCNc3c(NCCNC(=O)CN4CCN(CC(=O)O)CCN(CC(=O)O)CCN(CC(=O)O)CC4)c(=O)c3=O)cc12 [DOTA.QS.FAPi - uncomplexed]

IC50 (LNCap cells; Homo sapiens): 15.1 nM | SUV Leber (LNCaP tumor [5]): 0.29 | SUV Nieren (LNCaP tumor [5]): 0.27 | SUV Tumor (LNCaP tumor [5]): 0.73
Structure (SMILES): O=C(O)CC[C@H](NC(=O)N[C@@H](CCCCNC(=O)[C@H](Cc1ccc2ccccc2c1)NC(=O)[C@H]1CC[C@H](CNC(=O)CN2CCN(CC(=O)O)CCN(CC(=O)O)CCN(CC(=O)O)CC2)CC1)C(=O)O)C(=O)O [PSMA-617]

off-target activity in the kidneys (LNCaP tumor [6]; compared with 68Ga-PSMA-11): significantly lower | tumor activity (biological distribution) (LNCaP tumor [6]): slightly lower or equal | tumor activity (biological distribution) (LNCaP tumor [6]; listed as [^68Ga]Ga-DOTA.QS.PSMA): slightly lower or the same | SUV Tumor (LNCaP tumor [4]): 0.73
Structure (SMILES): O=C(O)CCC(NC(=O)NC(CCCCNc1c(NCCNC(=O)CCC(C(=O)O)N2CCN(CC(=O)O)CCN(CC(=O)O)CCN(CC(=O)O)CC2)c(=O)c1=O)C(=O)O)C(=O)O.[68Ga+3] (stereo not drawn) [^68Ga-DOTA.QS.PSMA]

SUV Nieren (LNCaP tumor [4]): 4.71 | SUV Leber (LNCaP tumor [4]): 0.25 | SUV Tumor (LNCaP tumor [4]): 1.16
Structure (SMILES): O=C(O)CCc1ccc(O)c(CN(CCN(CC(=O)O)Cc2cc(CCC(=O)NCCCCCC(=O)NCCCC[C@H](NC(=O)N[C@@H](CCC(=O)O)C(=O)O)C(=O)O)ccc2O)CC(=O)O)c1 [PSMA-11, reference compound]
